Biological target: T1, human Glu-plasminogen (Homo sapiens, UniProt P00747)
T1 construct: human Glu-plasminogen; purchased Chromogenix, Italy
Test: Clot-lysis buffer assay
Assay type: biochemical
Protocol: The assay method used for evaluating biological activity of the compounds according to the invention was Clot-lysis buffer assay.
Tested substance were added to the reaction mixture in 10% DMSO. Reaction was started by the addition of thrombin.
Measured according to the Clot-lysis buffer assay described above.

T1 sequence (P00747 20-810 limits assumed): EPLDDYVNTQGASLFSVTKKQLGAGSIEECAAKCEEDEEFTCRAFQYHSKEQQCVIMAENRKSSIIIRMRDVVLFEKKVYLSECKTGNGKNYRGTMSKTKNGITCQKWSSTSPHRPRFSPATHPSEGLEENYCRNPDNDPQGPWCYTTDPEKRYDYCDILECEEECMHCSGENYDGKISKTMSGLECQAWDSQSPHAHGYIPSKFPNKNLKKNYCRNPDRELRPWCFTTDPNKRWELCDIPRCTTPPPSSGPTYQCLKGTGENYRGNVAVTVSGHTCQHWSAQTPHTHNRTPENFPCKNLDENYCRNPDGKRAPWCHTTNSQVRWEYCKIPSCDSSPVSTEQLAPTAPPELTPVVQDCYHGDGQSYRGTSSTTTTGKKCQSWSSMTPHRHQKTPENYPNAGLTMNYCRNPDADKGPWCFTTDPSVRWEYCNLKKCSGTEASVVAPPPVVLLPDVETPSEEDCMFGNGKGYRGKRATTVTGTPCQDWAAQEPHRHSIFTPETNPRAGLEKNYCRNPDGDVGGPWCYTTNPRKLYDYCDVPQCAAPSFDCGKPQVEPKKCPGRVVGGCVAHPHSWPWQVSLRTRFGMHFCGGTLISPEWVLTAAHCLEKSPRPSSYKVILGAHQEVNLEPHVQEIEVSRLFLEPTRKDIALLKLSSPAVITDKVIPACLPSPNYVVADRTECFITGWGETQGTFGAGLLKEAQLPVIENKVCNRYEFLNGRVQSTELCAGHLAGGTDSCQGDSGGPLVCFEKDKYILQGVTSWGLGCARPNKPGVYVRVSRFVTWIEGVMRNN

Q: For O=c1cc([C@@H]2CCN[C@H](c3ccc(C(F)(F)F)c(F)c3)C2)o[nH]1 [Example 76, 5-((2S,4R)-2-(3-Fluoro-4-(trifluoromethyl)phenyl)piperidin-4-yl)isoxazol-3(2H)-one], which IC50 is on record?
A: 190 µM

Q: With O=c1cc([C@H]2CCN[C@@H](c3ccc(F)cc3Cl)C2)o[nH]1 [Example 47, 5-((2R,4S)-2-(2-Chloro-4-fluorophenyl)piperidin-4-yl)isoxazol-3(2H)-one] as the molecule, how does the IC50 read?
A: 1.4 µM

Q: For O=c1cc([C@@H]2CCN[C@@H](c3ccc(C(F)(F)F)nc3)C2)o[nH]1 (relative stereo) [Example 41, 5-(Trans-2-(6-(trifluoromethyl)pyridin-3-yl)piperidin-4-yl)isoxazol-3(2H)-one], which IC50 is on record?
A: 40.9 µM

Q: Which IC50 does the source give for O=c1cc([C@@H]2CCN[C@H](c3cc(F)c(F)c(F)c3)C2)o[nH]1 [Example 61, 5-((2S,4R)-2-(3,4,5-Trifluorophenyl)piperidin-4-yl)isoxazol-3(2H)-one] here?
A: 858 µM

Q: For O=c1cc([C@H]2CCN[C@H](c3cc(F)c(F)cc3F)C2)o[nH]1 [Example 64, 5-((2S,4S)-2-(2,4,5-Trifluorophenyl)piperidin-4-yl)isoxazol-3(2H)-one], which IC50 is on record?
A: 31.4 µM

Q: For CC(C)(C)c1cccc([C@H]2C[C@@H](c3cc(=O)[nH]o3)CCN2)c1 [Example 36, 5-((2R,4S)-2-(3-tert-Butylphenyl)piperidin-4-yl)isoxazol-3(2H)-one], which IC50 is on record?
A: 1.9 µM

Q: Which IC50 does the source give for O=c1cc([C@H]2CCN[C@@H](Cc3cc(F)ccc3F)C2)o[nH]1 [Example 124, 5-((2R,4S)-2-(2,5-Difluorobenzyl)piperidin-4-yl)isoxazol-3(2H)-one] here?
A: 1.2 µM

Q: How did the IC50 turn out when Cc1cc([C@H]2C[C@H](c3cc(=O)[nH]o3)CCN2)ccc1C(F)(F)F (relative stereo) [Example 69, 5-(Trans-2-(3-methyl-4-(trifluoromethyl)phenyl)piperidin-4-yl)isoxazol-3(2H)-one] was run?
A: 92.5 µM

Q: Which IC50 does the source give for CC(C)(C)c1ccc(C[C@@H]2C[C@@H](c3cc(=O)[nH]o3)CCN2)cc1 [Example 11, 5-((2S,4S)-2-(4-tert-Butylbenzyl)piperidin-4-yl)isoxazol-3(2H)-one] here?
A: 4.3 µM

Q: Cn1nnc([C@H]2C[C@H](c3cc(=O)[nH]o3)CCN2)n1 (relative stereo) [Example 82, 5-(Trans-2-(2-methyl-2H-tetrazol-5-yl)piperidin-4-yl)isoxazol-3(2H)-one] was tested. Which IC50 did it give?
A: 20.3 µM

Q: Which IC50 does the source give for O=c1cc([C@H]2CCN[C@@H](c3cc(F)c(Cl)c(F)c3)C2)o[nH]1 [Example 65, 5-((2R,4S)-2-(4-Chloro-3,5-difluorophenyl)piperidin-4-yl)isoxazol-3(2H)-one] here?
A: 2.2 µM

Q: O=c1cc([C@@H]2CCN[C@H](c3ccc(Cl)cc3)C2)o[nH]1 [Example 28, 5-((2S,4R)-2-(4-Chlorophenyl)piperidin-4-yl)isoxazol-3(2H)-one] was tested. Which IC50 did it give?
A: 283 µM

Q: With O=c1cc([C@@H]2CCN[C@H](Cc3ccc(C(F)(F)F)c(F)c3)C2)o[nH]1 [Example 141, 5-((2S,4R)-2-(3-Fluoro-4-(trifluoromethyl)benzyl)piperidin-4-yl)isoxazol-3(2H)-one] as the molecule, how does the IC50 read?
A: 69.5 µM

Q: For O=c1cc([C@@H]2CCN[C@@H](CC3CCC(F)(F)CC3)C2)o[nH]1 (relative stereo) [Example 91, 5-(Trans-2-((4,4-difluorocyclohexyl)methyl)piperidin-4-yl)isoxazol-3(2H)-one], which IC50 is on record?
A: 5.9 µM

Q: For O=c1cc([C@H]2CCN[C@@H](c3ccc(C(F)(F)F)cc3F)C2)o[nH]1 [Example 73, 5-((2R,4S)-2-(2-Fluoro-4-(trifluoromethyl)phenyl)piperidin-4-yl)isoxazol-3(2H)-one], which IC50 is on record?
A: 1.54 µM

Q: With O=c1cc([C@@H]2CCN[C@@H](c3ccc(F)cc3Cl)C2)o[nH]1 (relative stereo) [Example 48, 5-(Trans-2-(2-chloro-4-fluorophenyl)piperidin-4-yl)isoxazol-3(2H)-one] as the molecule, how does the IC50 read?
A: 44.3 µM

Q: O=c1cc([C@@H]2CCN[C@@H](c3ccc(Cl)c(F)c3)C2)o[nH]1 (relative stereo) [Example 50, 5-(Trans-2-(4-chloro-3-fluorophenyl)piperidin-4-yl)isoxazol-3(2H)-one] was tested. Which IC50 did it give?
A: 5.3 µM

Q: O=c1cc([C@@H]2CCN[C@H](Cc3c(F)cccc3F)C2)o[nH]1 [Example 128, 5-((2S,4R)-2-(2,6-Difluorobenzyl)piperidin-4-yl)isoxazol-3(2H)-one] was tested. Which IC50 did it give?
A: 31.4 µM

Q: O=c1cc([C@H]2CCN[C@@H](Cc3ccc(OC(F)(F)F)cc3)C2)o[nH]1 [Example 113, 5-((2R,4S)-2-(4-(Trifluoromethoxy)benzyl)piperidin-4-yl)isoxazol-3(2H)-one] was tested. Which IC50 did it give?
A: 1.1 µM

Q: O=c1cc([C@H]2CCN[C@@H](c3ccc(OC(F)(F)F)cc3F)C2)o[nH]1 [Example 58, 5-((2R,4S)-2-(2-Fluoro-4-(trifluoromethoxy)phenyl)piperidin-4-yl)isoxazol-3(2H)-one] was tested. Which IC50 did it give?
A: 2.1 µM

Q: How did the IC50 turn out when O=c1cc([C@H]2CCN[C@@H](Cc3ccc(Cl)cc3)C2)o[nH]1 [Example 115, 5-((2R,4S)-2-(4-Chlorobenzyl)piperidin-4-yl)isoxazol-3(2H)-one] was run?
A: 0.8 µM

Q: With O=c1cc([C@H]2CCN[C@H](c3ccc(Cl)cc3Cl)C2)o[nH]1 [Example 53, 5-((2S,4S)-2-(2,4-Dichlorophenyl)piperidin-4-yl)isoxazol-3(2H)-one] as the molecule, how does the IC50 read?
A: 72.9 µM

Q: How did the IC50 turn out when O=c1cc([C@H]2CCN[C@@H](c3ccc(C(F)(F)F)cc3)C2)o[nH]1 [Example 33, 5-((2R,4S)-2-(4-(Trifluoromethyl)phenyl)piperidin-4-yl)isoxazol-3(2H)-one] was run?
A: 1.43 µM

Q: With O=c1cc([C@H]2CCN[C@@H](c3cccc(C(F)(F)F)c3)C2)o[nH]1 [Example 30, 5-((2R,4S)-2-(3-(Trifluoromethyl)phenyl)piperidin-4-yl)isoxazol-3(2H)-one] as the molecule, how does the IC50 read?
A: 0.7 µM

Q: For O=c1cc([C@@H]2CCN[C@@H](Cc3cccc(C(F)(F)F)c3)C2)o[nH]1 (relative stereo) [Example 109, 5-(Trans-2-(3-(trifluoromethyl)benzyl)piperidin-4-yl)isoxazol-3(2H)-one], which IC50 is on record?
A: 5 µM

Q: Which IC50 does the source give for CC(C)(C)c1ccc([C@H]2C[C@@H](c3cc(=O)[nH]o3)CCN2)s1 [Example 42, 5-((2R,4S)-2-(5-tert-Butylthiophen-2-yl)piperidin-4-yl)isoxazol-3(2H)-one] here?
A: 34.9 µM

Q: CC(C)(C)c1cc(C[C@@H]2C[C@H](c3cc(=O)[nH]o3)CCN2)cc(C(C)(C)C)c1 [Example 147, 5-((2S,4R)-2-(3,5-Di-tert-butylbenzyl)piperidin-4-yl)isoxazol-3(2H)-one] was tested. Which IC50 did it give?
A: 44.6 µM

Q: With O=c1cc([C@@H]2CCN[C@H](Cc3cc(F)cc(F)c3)C2)o[nH]1 [Example 131, 5-((2S,4R)-2-(3,5-Difluorobenzyl)piperidin-4-yl)isoxazol-3(2H)-one] as the molecule, how does the IC50 read?
A: 128 µM

Q: O=c1cc([C@H]2CCN[C@@H](Cc3ccccc3C(F)(F)F)C2)o[nH]1 [Example 110, 5-((2R,4S)-2-(2-(Trifluoromethyl)benzyl)piperidin-4-yl)isoxazol-3(2H)-one] was tested. Which IC50 did it give?
A: 1.2 µM

Q: With O=c1cc([C@@H]2CCN[C@H](CC3CCC(F)(F)CC3)C2)o[nH]1 [Example 90, 5-((2R,4R)-2-((4,4-Difluorocyclohexyl)methyl)piperidin-4-yl)isoxazol-3(2H)-one] as the molecule, how does the IC50 read?
A: 102 µM

Q: For O=c1cc([C@H]2CCN[C@@H](c3ccc(F)cc3F)C2)o[nH]1 [Example 44, 5-((2R,4S)-2-(2,4-Difluorophenyl)piperidin-4-yl)isoxazol-3(2H)-one], which IC50 is on record?
A: 2.3 µM

— patent publication US8415378B2, “Isoxazol-3(2H)-one analogs as therapeutic agents” (AstraZeneca AB, priority 2009, dated 2013)
